Results on 8 cell lines are retold here after the supplement of paper PMC10307832.

Experiment in all cases: relative viability (nuclei count vs DMSO), 5 days (fraction); higher = more cells survive
Compound in test [1]: COc1cc(-c2nn([C@H]3CC[C@H](N4CCN(C(C)=O)CC4)CC3)c3ncnc(N)c23)ccc1NC(=O)c1cc2ccccc2n1C + CS(=O)(=O)N1CCN(Cc2cc3nc(-c4cccc5[nH]ncc45)nc(N4CCOCC4)c3s2)CC1 [Pictilisib] (partner 1 µM)
The procedure, abridged: (§1)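 Medians of duplicate plates are given as relative viability. That measure is the nuclei count in treated wells divided by the count in vehicle wells. Counts were taken on 4× images of lung cancer cell lines in 1536-well plates, 5 days after pin-tool dosing the day after seeding with one drug alone or a fixed anchor-drug dose plus five library-drug doses (not always all listed) in √10 steps.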

Compound in test [2]: COc1cc(-c2nn([C@H]3CC[C@H](N4CCN(C(C)=O)CC4)CC3)c3ncnc(N)c23)ccc1NC(=O)c1cc2ccccc2n1C + O=C(CCCCCCC(=O)Nc1ccccc1)NO [Vorinostat] (partner 1 µM)
The procedure, abridged: as §1

Compound in test [3]: CO[C@@H]1[C@H](N(C)C(=O)c2ccccc2)C[C@H]2O[C@]1(C)n1c3ccccc3c3c4c(c5c6ccccc6n2c5c31)C(=O)NC4 [Midostaurin] + N=C(N)NC(=N)NCCc1ccccc1 [Phenformin] (partner 250 µM)
The procedure, abridged:
as §1

Compound in test [4]: COc1cc(-c2nn([C@H]3CC[C@H](N4CCN(C(C)=O)CC4)CC3)c3ncnc(N)c23)ccc1NC(=O)c1cc2ccccc2n1C + Cc1cc(Nc2cc(N3CCN(C)CC3)nc(Sc3ccc(NC(=O)C4CC4)cc3)n2)n[nH]1 [Tozasertib] (partner 0.1 µM)
The procedure, abridged:
as §1

Compound in test [5]: COc1cc(-c2nn([C@H]3CC[C@H](N4CCN(C(C)=O)CC4)CC3)c3ncnc(N)c23)ccc1NC(=O)c1cc2ccccc2n1C + CC(=O)Nc1cccc(-n2c(=O)n(C3CC3)c(=O)c3c(Nc4ccc(I)cc4F)n(C)c(=O)c(C)c32)c1 [Trametinib] (partner 0.02 µM)
An outline of the steps:
as §1

On to HCC-78, for which the relative viability in test [1] (first compound 0.0128 µM) stood at 0.23; in test [1] (first compound 0.04048 µM), 0.181; in test [1] (first compound 0.128 µM) it was 0.21; in test [1] (first compound 1.28 µM) it was 0.196; in test [2] (first compound 0.0128 µM), 0.462; in test [2] (first compound 0.04048 µM), 0.547. Further, the relative viability was 0.422 in test [2] (first compound 0.128 µM); 0.298 in test [2] (first compound 1.28 µM); 0.797 in test [3] (first compound 0.01 µM); 0.603 in test [3] (first compound 0.03162 µM); 0.693 in test [3] (first compound 0.1 µM); 0.462 in test [3] (first compound 0.3162 µM). Also, the relative viability is 0.456 in test [4] (first compound 0.0128 µM); 0.368 in test [4] (first compound 0.04048 µM); 0.742 in test [4] (first compound 0.128 µM); 0.269 in test [4] (first compound 1.28 µM); 0.851 in test [5] (first compound 0.0128 µM); 0.536 in test [5] (first compound 0.04048 µM). Besides, the relative viability in test [5] (first compound 0.128 µM) was determined as 0.776; in test [5] (first compound 1.28 µM), 0.453.
Consider HCC-366, for which the relative viability in test [1] (first compound 0.0128 µM) stood at 0.09; in test [1] (first compound 0.04048 µM), 0.129; in test [1] (first compound 0.128 µM), 0.161; in test [1] (first compound 1.28 µM) it was 0.141; in test [2] (first compound 0.0128 µM) it was 0.432; in test [2] (first compound 0.04048 µM), 0.361. In addition, the relative viability in test [2] (first compound 0.128 µM) amounted to 0.346; in test [2] (first compound 1.28 µM) it was 0.451; in test [3] (first compound 0.01 µM), 0.597; in test [3] (first compound 0.03162 µM), 0.528; in test [3] (first compound 0.1 µM), 0.689; in test [3] (first compound 0.3162 µM), 0.615. Moreover, the relative viability in test [4] (first compound 0.0128 µM) amounted to 0.114; in test [4] (first compound 0.04048 µM), 0.0717; in test [4] (first compound 0.128 µM) it was 0.0637; in test [4] (first compound 1.28 µM) it was 0.0555; in test [5] (first compound 0.0128 µM) it was 0.309; in test [5] (first compound 0.04048 µM) it was 0.281. The relative viability worked out at 0.305 in test [5] (first compound 0.128 µM) and 0.179 in test [5] (first compound 1.28 µM).
Take HCC-827: the relative viability stood at 1.1 in test [1] (first compound 0.0128 µM); 1.22 in test [1] (first compound 0.04048 µM); 0.902 in test [1] (first compound 0.128 µM); 0.783 in test [1] (first compound 1.28 µM); 0.72 in test [2] (first compound 0.0128 µM); 0.979 in test [2] (first compound 0.04048 µM). Besides, the relative viability was 0.765 in test [2] (first compound 0.128 µM); 0.389 in test [2] (first compound 1.28 µM); 0.364 in test [3] (first compound 0.01 µM); 0.369 in test [3] (first compound 0.03162 µM); 0.449 in test [3] (first compound 0.1 µM); 0.422 in test [3] (first compound 0.3162 µM). For the same cell line, the relative viability in test [4] (first compound 0.0128 µM) was 0.417; in test [4] (first compound 0.04048 µM), 0.416; in test [4] (first compound 0.128 µM) it was 0.392; in test [4] (first compound 1.28 µM), 0.374; in test [5] (first compound 0.0128 µM) it was 0.574; in test [5] (first compound 0.04048 µM), 0.341. For the same cell line, the relative viability in test [5] (first compound 0.128 µM) came out at 0.525; in test [5] (first compound 1.28 µM), 0.286.
Turning to HOP-62, the relative viability in test [1] (first compound 0.0128 µM) worked out at 0.831; in test [1] (first compound 0.04048 µM), 0.285; in test [1] (first compound 0.128 µM), 0.738; in test [1] (first compound 1.28 µM), 0.604; in test [2] (first compound 0.0128 µM), 1.01; in test [2] (first compound 0.04048 µM), 0.546. Further, the relative viability came out at 0.601 in test [2] (first compound 0.128 µM); 0.585 in test [2] (first compound 1.28 µM); 0.586 in test [3] (first compound 0.01 µM); 0.66 in test [3] (first compound 0.03162 µM); 0.69 in test [3] (first compound 0.1 µM); 0.646 in test [3] (first compound 0.3162 µM). The relative viability worked out at 0.382 in test [4] (first compound 0.0128 µM); 0.41 in test [4] (first compound 0.04048 µM); 0.346 in test [4] (first compound 0.128 µM); 0.368 in test [4] (first compound 1.28 µM); 0.428 in test [5] (first compound 0.0128 µM); 0.173 in test [5] (first compound 0.04048 µM). Moreover, the results for the relative viability in test [5] (first compound 0.128 µM) and in test [5] (first compound 1.28 µM) were 0.376 and 0.296, respectively.
As to IA-LM, the relative viability in test [1] (first compound 0.0128 µM) was determined as 0.345; in test [1] (first compound 0.04048 µM) it was 0.443; in test [1] (first compound 0.128 µM), 0.324; in test [1] (first compound 1.28 µM), 0.334; in test [2] (first compound 0.0128 µM), 1.07; in test [2] (first compound 0.04048 µM), 0.877. For the same cell line, the relative viability in test [2] (first compound 0.128 µM) is 0.79; in test [2] (first compound 1.28 µM), 0.912.
In the case of LC-2-ad, the relative viability in test [1] (first compound 0.0128 µM) is 0.606; in test [1] (first compound 0.04048 µM) it was 0.009; in test [1] (first compound 0.128 µM), 0.455; in test [1] (first compound 1.28 µM) it was 0.311; in test [2] (first compound 0.0128 µM), 0.857; in test [2] (first compound 0.04048 µM), 0.742. The relative viability in test [2] (first compound 0.128 µM) worked out at 0.703; in test [2] (first compound 1.28 µM) it was 0.703; in test [3] (first compound 0.01 µM) it was 0.542; in test [3] (first compound 0.03162 µM) it was 0.562; in test [3] (first compound 0.1 µM), 0.632; in test [3] (first compound 0.3162 µM), 0.586. In addition, the relative viability in test [4] (first compound 0.0128 µM) amounted to 0.379; in test [4] (first compound 0.04048 µM), 0.542; in test [4] (first compound 0.128 µM), 0.405; in test [4] (first compound 1.28 µM), 0.371; in test [5] (first compound 0.0128 µM), 0.956; in test [5] (first compound 0.04048 µM) it was 0.536. Moreover, the relative viability in test [5] (first compound 0.128 µM) and in test [5] (first compound 1.28 µM) was 0.895 each time.
Consider LCLC-97TM1, for which the relative viability was found to be 0.229 in test [1] (first compound 0.0128 µM); 0.107 in test [1] (first compound 0.04048 µM); 0.227 in test [1] (first compound 0.128 µM); 0.281 in test [1] (first compound 1.28 µM); 0.875 in test [2] (first compound 0.0128 µM); 0.395 in test [2] (first compound 0.04048 µM). Besides, the relative viability in test [2] (first compound 0.128 µM) worked out at 0.735; in test [2] (first compound 1.28 µM) it was 0.968; in test [3] (first compound 0.01 µM) it was 0.434; in test [3] (first compound 0.03162 µM), 0.324; in test [3] (first compound 0.1 µM), 0.38; in test [3] (first compound 0.3162 µM), 0.415. For the same cell line, the relative viability in test [4] (first compound 0.0128 µM) stood at 0.275; in test [4] (first compound 0.04048 µM) it was 0.252; in test [4] (first compound 0.128 µM), 0.201; in test [4] (first compound 1.28 µM) it was 0.253; in test [5] (first compound 0.0128 µM), 0.22; in test [5] (first compound 0.04048 µM), 0.125. Also, the relative viability is 0.139 in test [5] (first compound 0.128 µM) and 0.133 in test [5] (first compound 1.28 µM).
Consider LCLC-103H, for which the relative viability in test [1] (first compound 0.0128 µM) was determined as 0.656; in test [1] (first compound 0.04048 µM), 0.691; in test [1] (first compound 0.128 µM), 0.571; in test [1] (first compound 1.28 µM), 0.49; in test [2] (first compound 0.0128 µM) it was 0.63; in test [2] (first compound 0.04048 µM), 0.768. Further, the relative viability was 0.802 in test [2] (first compound 0.128 µM); 0.819 in test [2] (first compound 1.28 µM); 0.347 in test [3] (first compound 0.01 µM); 0.309 in test [3] (first compound 0.03162 µM); 0.359 in test [3] (first compound 0.1 µM); 0.366 in test [3] (first compound 0.3162 µM). Moreover, the relative viability in test [4] (first compound 0.0128 µM) came to 0.438; in test [4] (first compound 0.04048 µM), 0.453; in test [4] (first compound 0.128 µM), 0.431; in test [4] (first compound 1.28 µM), 0.423; in test [5] (first compound 0.0128 µM) it was 0.717; in test [5] (first compound 0.04048 µM), 0.58. Moreover, the relative viability in test [5] (first compound 0.128 µM) was 0.583; in test [5] (first compound 1.28 µM), 0.664.
